From US20240415855A1, “COMPOSITIONS AND METHODS RELATING TO USE OF PHOSPHATIDIC ACID TO RESCUE FETAL ALCOHOL SPECTRUM DISORDER (FASD) GROWTH RESTRICTION AND BLOOD VESSEL CONSTRICTION” (Wayne State University, priority 2023, published 2024) come the findings set out here.

For series [1], the system named is endothelial nitric oxide synthase (eNOS). Kind of series: Uterine artery eNOS immunoblotting / immunofluorescence after in vivo treatment. Details: species or system rat. To be noted: for Total eNOS levels in uterine artery: ethanol and/or PA treatment; for P-Ser1177 eNOS level in uterine artery: ethanol/alcohol-exposed vs control, P<0.05. The procedure:
(§1) The dams were then assigned into experimental groups. […] Rats were euthanized by decapitation while under isoflurane anesthesia.
Immunoblotting was performed using standard laboratory procedures. Following euthanasia, the uterine arteries were isolated by separating the vein, and cleaning the adipose tissues in HBS, before flash freezing for immunoblot analysis. Tissues were first homogenized using a 4° C. cooled bead homogenizer (Benchmark Scientific, Sayreville, NJ, USA) and then quantified using BCA protein quantification assay. Next, 20 μg of the uterine artery sample protein was then loaded on to 4-20% mini-protean TGX gels (Bio-rad, Hercules, CA, USA). Following transfer to a PVDF membrane, P-Ser1177 eNOS (Novus Biologicals, Centennial, CO, USA), total eNOS (BD Biosciences, Franklin Lakes, NJ, USA), and β-Actin (Sigma Aldrich, St. Louis, MI, USA) were probed. Densitometry analysis was performed using AzureSpot (Azure Biosystems, Dublin, CA, USA).
Immunofluorescence assessments were performed using previously published protocols. In brief, maternal uterine arteries were sectioned at 8 μm with a Leica cryostat (CM1860, Leica Biosystems, Buffalo Grove, IL, USA). Sections were subsequently fixed with ice-cold methanol (30 min, −20° C.), and then rinsed in PBS, and incubated in 10% normal serum (60 min). This was followed by incubation with (1:100; p1177-eNOS; Cell Signaling and 1:250; total eNOS, BD Biosciences) primary antibody overnight at 4° C. in a humidified chamber. The sections were then incubated with goat anti-rabbit IgG secondary antibody (Alexa Fluor 488, Invitrogen, Carlsbad, CA, USA), for 1 h at room temperature. Digital images were captured with an Olympus BX63 […] that was equipped with U-HGLGPS fluorescent light source, ORCA-Flash 4.0 LT camera, Hamamatsu Photonics (Hamamatsu, Japan), and Olympus cellSens Dimension software Version 3.2 (Olympus, Tokyo, Japan).

The test system of the next series is uterine artery. The experiment in a line: Pressure arteriography of uterine artery (ACh-induced vasodilation) after in vivo treatment. Also on record: species or system rat. To be noted: ethanol/alcohol group vs control, p<0.05. On the procedure: as §1
Following euthanasia, the entirety of the uterus was excised and immediately placed in ice-cold HBS for pressure arteriography experiments. Uterine artery functional assessments were performed following uterine artery isolation using established procedures. Briefly, the uterine horn was transferred to a 200 mm petri dish with solidified Sylgard to facilitate tissue isolation and cleaning in ice-cold HBS. A 3-5 mm segment of the primary uterine artery was dissected between arterial bifurcations from the approximate center of the uterine horn. Surrounding adipose and connective tissues were carefully removed from the uterine artery segment. […] Intramural pressure was then increased to mimic in vivo pressures at 90 mm Hg, at which pressure the ACh concentration responses were measured. Vessels were pre-constricted with 10^−6 M Tbx as determined previously. […] The above treatment was followed by the administration of three-fold increasing concentrations of ACh from 10^−10 M up to 10^−5 M. Vascular response was recorded by established methods using Ionwizard software version 6.6 (Ionoptix LLC, Westwood, MA, USA) for at least 5 min, or until arterial diameter stabilized.

Series [2] concerns pregnant Sprague-Dawley rats. Kind of series: Maternal and fetal growth assessment in FASD rat model (binge alcohol with or without in vivo PA).
Procedure: (§2) Molecule administered: PA (#840857C, Avanti Polar Lipids) was air-dried under a gentle stream of nitrogen gas and resuspended in 1% BSA to make a 10^−2 M stock solution. PA was administered to pregnant rats in vivo at a dose of 4.5 mg/kg/day for alcohol dose of 4.5 g/kg body weight from gestation day 4 through 10 and 6 mg/kg/day for alcohol dose of 6 g/kg body weight from gestation day 11 through 19 or 20.
(§3) Timed pregnant Sprague-Dawley rats (8-12 weeks old), were purchased from Charles River (Wilmington, MA, USA) and arrived on GD 4, where they were housed in a temperature-controlled room (23° C.) with a 12:12 h light-dark cycle. The dams were acclimatized for a day before weighing and handling. The dams were then assigned into experimental groups. Four in vivo treatment groups were utilized: (1) a nutritional pair-fed control group (control), that served as a control for nutrition and for the gavage procedure. To control for the calories derived from alcohol, these pair-fed control rats were administered isocaloric maltose-dextrin (once-daily) via orogastric gavage. […] (3) An in vivo phosphatidic acid (PA) control group (control PA), to control for the in vivo PA supplement. […] (4) A binge alcohol in vivo PA group (alcohol PA), that received alcohol via intragastric gavage similar to those in the binge alcohol group along with the PA supplement. Daily PA doses were calculated based on the dam's weight at the time of administration (PA (μL)=0.2×dam weight (g) GD 5-10; PA (μL)=0.2105×weight (g) GD 11-19). Intake of food in the alcohol treatment group was measured, and an equivalent amount of food was given to the pair-fed control dams to account for additional nutritional factors. Rats were euthanized by decapitation while under isoflurane anesthesia.
(§4) Maternal weights and fetal weights were measured on GD 20-21, one day after the last treatment on GD 19-20, following euthanasia.
(§5) Maternal weight and fetal weight (unit of analysis is a dam or litter) were analyzed using two-way mixed ANOVA with alcohol as the between factor and PA as the within factor. Normality was tested using the Shapiro-Wilk normality test where appropriate. […] The data were considered significant if the p value was <0.05.
Series [3] relates to pregnant Sprague-Dawley rats. To be noted: rat, in vivo.
Procedure: as §2, §3, §4, §5
The mark [4] stands for this setting: fetuses from ethanol-fed rats, P<0.05.

Read-outs that look alike come from different tables or passages of the source.

For `CCO` [ethanol], the “Total eNOS levels in uterine artery” value in series [1] is “Neither ethanol treatment nor PA affected total eNOS levels”; in series [1] (listed as alcohol), “Neither alcohol nor PA had any effect on total eNOS”. Besides, the “P-Ser1177 eNOS level in uterine artery” value in series [1] is listed as “decreases”; in series [1] (listed as Alcohol), “significantly reduced”; in series [1] (listed as Ethanol) it was “significantly reduced”. Further, the entries for the “Acetylcholine-induced uterine artery relaxation (vasodilation)” value in the series with uterine artery and with uterine artery (listed as alcohol) were “significantly impaired” and “significantly decreased”, respectively. Moreover, in series [2] (GD 20-21, control, alcohol, control PA, alcohol PA groups), the Maternal body weights result was “did not differ among the treatment groups”. The Average litter size in series [2] (alcohol group) was determined as 10.83±1.33. Besides, in series [2] (alcohol group vs control, p<0.0001), the Mean fetal weights entry is on record as “significantly lower”. Moreover, the “Crown-rump length lower than pair-fed control” value in series [2] (setting [4]) was roughly 8%. In series [2] (setting [4]), the “Mean fetal weight lower than pair-fed control” value was roughly 9%.

As to L-α-phosphatidic acid [PA], the Maternal body weights result in series [3] is reported as “did not differ among the treatment groups”.
